# Test results from ChEMBL document CHEMBL1128894, “Enzymatic cyclization of nicotinamide adenine dinucleotide phosphate (NADP)” (Bioorg Med Chem Lett, 1995).
# pEC50: −log10 of the molar value.
# Species on record: Rattus norvegicus
# Experiment: Effective concentration for calcium mobilization (Ca 2+ release) in rat brain microsomes
# Assay type: functional
row,Compound,pEC50
1,N=c1c2ncn3c2ncn1[C@@H]1O[C@H](COP(=O)(O)OP(=O)(O)OC[C@H]2OC3[C@H](O)[C@@H]2O)[C@@H](O)[C@H]1O,4.66
2,N=c1c2ncn3c2ncn1[C@@H]1O[C@H](COP(=O)(O)OP(=O)(O)OC[C@H]2O[C@@H]3[C@H](OP(=O)(O)O)[C@@H]2O)[C@@H](O)[C@H]1O,5.04
3,"O=P(O)(O)O[C@@H]1[C@H](O)[C@H](O)[C@@H](OP(=O)(O)O)[C@H](OP(=O)(O)O)[C@H]1O [INS(1,4,5)P3]",7.00
